Key:
[1] = Brain-penetrating ability, brain:plasma ratio; assay type: in vivo, Male CD1 mice; settings: iv; for Ratio of Brain to Plasma Levels (at T = 3 hours, %): mouse, in vivo, 5 mg/kg
Protocol: Male CD1 mice were administered various tetracycline compounds (i.v. at a dose of 5 mg/kg). After 15 minutes, 1 hour and 3 hours post-dose, 3 mice were sacrificed, exsanguinated, and brains harvested and snap frozen. Blood was centrifuged and the plasma removed and frozen.

S. aureus (SA RN450) = test: Antibacterial MIC, gram positive; assay type: cell-based; settings: CLSI methodology, 35° C., 18-24 hours
E. coli (EC D1-209) = test: Antibacterial MIC, gram negative; assay type: cell-based; settings: CLSI methodology, 35° C., 18-24 hours
SMN2 mRNA = test: In vitro cell-free splicing assay for inclusion of exon 7; assay type: biochemical; settings: HeLa cell nuclear extract, 30° C., 3 hours
Outline: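 ^32P-labelled SMN2 minigene pre-mRNA (exon 6 to part of exon 8; 10 fmol) spliced 3 h at 30 °C in 30% HeLa nuclear extract with 0.5 mM ATP, 1.56 mM MgCl2, pH 7.4, plus compound or buffer. Exon 7 inclusion quantified by denaturing PAGE and phosphorimaging. Emax is maximal % inclusion and Cmax the lowest concentration (μM) reaching it, reported as binned grades.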

[2] = system: 3813 SMA patient-derived fibroblast cells; test: In vitro gems assay; assay type: cell-based, Human; settings: 1 mM, SMA patient line
Protocol: The following example illustrates how tetracycline compound of the invention increase gems in vitro. A glass cover slide was added into each well of 6 well plates and 1×10^4 cells (3813 SMA patient-derived fibroblast cells or 3814 unaffected family member-derived fibroblast cells) in 2 mL were added. After approximately 6 hours, the medium was changed and the desired compound was added to the appropriate well at indicated concentrations. After 12 hours, the medium was changed and the desired compound was added to the appropriate well again. After 24 hours, one set of slides was fixed and the medium was changed and the desired compound was added to the appropriate well again. After 36 hours, the medium was changed and the desired compound was added to the appropriate well again. Another set of cells were fixed on the slides at 48 hours.
Immunofluorescence staining of the cells was performed by washing the cells 2 times with PBS (phosphate buffered saline) and fixing the cells on slides in 4% paraformaldehyde for 10 minutes on ice. The cells were washed 3 times for 5 minutes with PBS, then were permeabilized on the cover slip with 0.2% TritonX, 0.5% BSA in PBS and incubated for 5 minutes on ice. […] The cells were again washed 2 times for five minutes with PBS, mounted on slides with Molecular Probes Prolong Antifade kit, dried and analyzed with Axioskop widefield fluourescence microscope.

| SMILES | Ratio of Brain to Plasma Levels (at T = 3 hours, %) [1] [%] | MIC Gram Positive (SA RN450) (S. aureus (SA RN450)) | MIC Gram Negative (EC D1-209) (E. coli (EC D1-209)) | Cmax (lowest compound concentration at which the maximum exon 7 inclusion occurs) (SMN2 mRNA) | Emax (maximum percentage exon 7 inclusion observed) (SMN2 mRNA) | increase in the number of gems/100 cells [2] [fold] | Kp at 3 h ([1]; male, CD1, mouse, brain and plasma, i.v. 5 mg/kg, 3 hours post-dose, read-out: Ratio of Brain to Plasma Levels (at T = 3 hours, %)) |
| --- | --- | --- | --- | --- | --- | --- | --- |
| COCCN(C)CC(=O)c1ccc(O)c2c1CC1CC3C(N(C)C)C(O)=C(C(N)=O)C(=O)C3(O)C(O)=C1C2=O (stereo not shown) [BO] | 50.7 | *** (Good antibacterial activity (e.g., less than about 4 μg/mL)) | * (weak antibacterial activity (greater than about 8 μg/mL)) |  |  |  |  |
| CN(C)C1C(O)=C(C(N)=O)C(=O)C2(O)C(O)=C3C(=O)c4c(O)ccc(-c5cccc(CCCN6CCCCC6)c5)c4CC3CC12 (stereo not shown) [BN] | 41.6 | *** (Good antibacterial activity (e.g., less than about 4 μg/mL)) | ** (modest antibacterial activity (between about 4 and 8 μg/mL)) | *** (concentrations of less than 10 μM) | *** (values greater than 20%) |  |  |
| CCCC(CCC)C(=O)O [valproic acid] |  |  |  |  |  | 1.7 |  |
| CN(C)c1ccc(O)c2c1C[C@H]1C[C@H]3[C@H](N(C)C)C(O)=C(C(N)=O)C(=O)[C@@]3(O)C(O)=C1C2=O [Minocycline, minocycline, reference compound] |  |  |  |  |  |  | 1.28 |
| CN(C)CCCC(=O)Nc1cccc(-c2ccc(O)c3c2CC2CC4C(N(C)C)C(O)=C(C(N)=O)C(=O)C4(O)C(O)=C2C3=O)c1 (stereo not shown) [Compound Q] |  | *** (Good antibacterial activity (e.g., less than about 4 μg/mL)) | * (weak antibacterial activity (greater than about 8 μg/mL)) | *** (concentrations of less than 10 μM) | ** (values of 10-20%) |  |  |
| CN(Cc1cccnc1)Cc1cccc(-c2ccc(O)c3c2CC2CC4C(N(C)C)C(O)=C(C(N)=O)C(=O)C4(O)C(O)=C2C3=O)c1 (stereo not shown) [BJ] |  | *** (Good antibacterial activity (e.g., less than about 4 μg/mL)) | * (weak antibacterial activity (greater than about 8 μg/mL)) | *** (concentrations of less than 10 μM) | ** (values of 10-20%) |  |  |
| CN(C)CCNC(=O)c1ccc(O)c2c1CC1CC3C(N(C)C)C(O)=C(C(N)=O)C(=O)C3(O)C(O)=C1C2=O (stereo not shown) [AH] |  | * (weak antibacterial activity (greater than about 8 μg/mL)) | * (weak antibacterial activity (greater than about 8 μg/mL)) | ** (concentrations between 40 and 10 μM) | * (percentage inclusion values of less than 10%) |  |  |
| CN(C)C1C(O)=C(C(N)=O)C(=O)C2(O)C(O)=C3C(=O)c4c(O)ccc(-c5cccc(C(=O)NCCN)c5)c4CC3CC12 (stereo not shown) [N] |  | *** (Good antibacterial activity (e.g., less than about 4 μg/mL)) | * (weak antibacterial activity (greater than about 8 μg/mL)) | ** (concentrations between 40 and 10 μM) | ** (values of 10-20%) |  |  |
| CN(C)C1C(O)=C(C(N)=O)C(=O)C2(O)C(O)=C3C(=O)c4c(O)ccc(-c5cccc(C(=O)NCCN6CCCCC6)c5)c4CC3CC12 (stereo not shown) [U] |  | *** (Good antibacterial activity (e.g., less than about 4 μg/mL)) | ** (modest antibacterial activity (between about 4 and 8 μg/mL)) | ** (concentrations between 40 and 10 μM) | ** (values of 10-20%) |  |  |
| CN(C)C1C(O)=C(C(N)=O)C(=O)C2(O)C(O)=C3C(=O)c4c(O)ccc(-c5ccc(CNCc6cccnc6)o5)c4CC3CC12 (stereo not shown) [BI] |  | *** (Good antibacterial activity (e.g., less than about 4 μg/mL)) | *** (Good antibacterial activity (e.g., less than about 4 μg/mL)) | *** (concentrations of less than 10 μM) | ** (values of 10-20%) |  |  |

Source: patent US7935687B2, “Methods for treating spinal muscular atrophy using tetracycline compounds” (Paratek Pharmaceuticals, Inc., priority 2007, dated 2011)
